Assays:
Format in all cases: cell-based
human A2A receptor = molecular target: T1, human A2A receptor (Homo sapiens, UniProt P29274); assay: cAMP (HTRF) functional assay, recombinant HEK293 cells expressing human A2A receptor, agonist NECA
T1 construct: expressed in transfected cells; host or cells: HEK293
Method: (§1) The functional activities of human A2A, A2B, A1 and A3 receptors were determined by quantification of cAMP, being the second messenger for adenosine receptors.
(§2) Cells were seeded into 384-well plates, forskolin, test compounds and agonists (CPA for A1- and IB-MECA for A3-receptor) were added. After 30 min incubation, HTRF reagents (cAMP dynamic 2, Cis Bio) were added and the cellular cAMP levels were determined using the ENVISION (Perkin Elmer) plate reader. Obtained raw data were normalized against the inhibitor control and the neural control (DMSO) and the normalized data were fitted using GeneData software.

human A1 receptor = molecular target: T2, human A1 receptor (Homo sapiens, UniProt P30542); assay: cAMP (HTRF) functional assay, recombinant CHO cells expressing human A1 receptor, forskolin + agonist CPA
T2 construct: expressed in transfected cells; host or cells: CHO
T2 sequence (P30542 1-326): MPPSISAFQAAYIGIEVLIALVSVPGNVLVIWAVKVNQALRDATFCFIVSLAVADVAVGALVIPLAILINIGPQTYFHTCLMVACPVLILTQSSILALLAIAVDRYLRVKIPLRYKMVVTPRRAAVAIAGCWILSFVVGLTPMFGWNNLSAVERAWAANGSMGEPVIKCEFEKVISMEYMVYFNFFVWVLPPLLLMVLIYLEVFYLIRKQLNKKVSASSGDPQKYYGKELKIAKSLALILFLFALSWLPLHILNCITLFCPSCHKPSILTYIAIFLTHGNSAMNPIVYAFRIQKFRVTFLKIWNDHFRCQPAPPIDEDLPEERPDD
Method: as §1
For human A1 and A3 receptors, recombinant CHO cells, expressing either A1 or A3-receptor, were used. As both receptors couple to Gi proteins, the assay protocol was adapted:
as §2

human A2B receptor = molecular target: T3, human A2B receptor (Homo sapiens, UniProt P29275); assay: cAMP (HTRF) functional assay, recombinant HEK293 cells expressing human A2B receptor, agonist NECA
T3 construct: expressed in transfected cells; host or cells: HEK293
T3 sequence (P29275 1-332): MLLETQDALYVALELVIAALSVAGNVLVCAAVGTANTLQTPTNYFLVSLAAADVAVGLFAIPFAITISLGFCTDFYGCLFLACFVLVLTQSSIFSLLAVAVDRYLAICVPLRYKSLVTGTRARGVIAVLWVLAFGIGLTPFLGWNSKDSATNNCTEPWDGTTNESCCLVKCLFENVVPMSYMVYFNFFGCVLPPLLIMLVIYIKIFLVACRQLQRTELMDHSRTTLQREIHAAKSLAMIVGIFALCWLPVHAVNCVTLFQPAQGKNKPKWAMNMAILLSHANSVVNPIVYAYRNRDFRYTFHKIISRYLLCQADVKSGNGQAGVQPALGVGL
Method: as §1, §2

T1 sequence (P29274 whole entry): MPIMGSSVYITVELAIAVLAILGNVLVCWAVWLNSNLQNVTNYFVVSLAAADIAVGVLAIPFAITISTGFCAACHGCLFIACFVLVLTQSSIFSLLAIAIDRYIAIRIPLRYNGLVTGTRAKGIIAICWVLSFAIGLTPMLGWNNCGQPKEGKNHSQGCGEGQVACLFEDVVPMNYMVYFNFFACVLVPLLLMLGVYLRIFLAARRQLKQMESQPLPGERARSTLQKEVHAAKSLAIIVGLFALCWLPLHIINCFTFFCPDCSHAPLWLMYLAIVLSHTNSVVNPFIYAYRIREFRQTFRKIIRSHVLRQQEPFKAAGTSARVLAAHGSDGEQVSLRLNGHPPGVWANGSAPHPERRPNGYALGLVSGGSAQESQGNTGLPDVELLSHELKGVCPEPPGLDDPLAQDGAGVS

COc1ncc(C2CCOCC2)c2sc(NC(=O)c3cnc(C)o3)nc12 [compound 147, 2-Methyl-oxazole-5-carboxylic acid [4-methoxy-7-(tetrahydro-pyran-4-yl)-thiazolo[4,5-c]pyridin-2-yl]-amide]
IC50 (human A2A receptor): < 10 nM | IC50 (human A1 receptor): > 1000 nM | IC50 (human A2B receptor): < 100 nM

COc1ncc(N2CCOCC2)c2sc(NC(=O)N3CCC4(CCCOC4)C3)nc12 (stereo not shown) [compound 34, 7-Oxa-2-aza-spiro[4.5]decane-2-carboxylic acid (4-methoxy-7-morpholin-4-yl-thiazolo[4,5-c]pyridin-2-yl)-amide]
IC50 (human A2A receptor): < 10 nM | IC50 (human A2B receptor): < 100 nM

COc1ncc(C2CCOCC2)c2sc(NC(=O)c3ccc(CN(C)C)cc3)nc12 [compound 27, 4-Dimethylaminomethyl-N-[4-methoxy-7-(tetrahydro-pyran-4-yl)-thiazolo[4,5-c]pyridin-2-yl]-benzamide]
IC50 (human A2A receptor): < 10 nM | IC50 (human A1 receptor): > 1000 nM | IC50 (human A2B receptor): < 100 nM

COc1ncc(-c2ccc(F)cc2)c2sc(NC(=O)N3CCC4(CCOCC4)C3)nc12 [compound 193, 8-Oxa-2-aza-spiro[4.5]decane-2-carboxylic acid [7-(4-fluoro-phenyl)-4-methoxy-thiazolo[4,5-c]pyridin-2-yl]-amide]
IC50 (human A2A receptor): < 10 nM | IC50 (human A1 receptor): > 1000 nM | IC50 (human A2B receptor): < 100 nM

COc1ncc(-c2cnn(C)c2)c2sc(NC(=O)N3CC[C@@]4(CCCOC4)C3)nc12 [compound 176, (S)-7-Oxa-2-aza-spiro[4.5]decane-2-carboxylic acid [4-methoxy-7-(1-methyl-1H-pyrazol-4-yl)-thiazolo[4,5-c]pyridin-2-yl]-amide]
IC50 (human A2A receptor): < 10 nM | IC50 (human A1 receptor): > 1000 nM | IC50 (human A2B receptor): < 100 nM

COc1ncc(-c2cnn(C)c2)c2sc(NC(=O)N3CC[C@@]4(CCOC4)C3)nc12 [compound 172, (R)-2-Oxa-7-aza-spiro[4.4]nonane-7-carboxylic acid [4-methoxy-7-(1-methyl-1H-pyrazol-4-yl)-thiazolo[4,5-c]pyridin-2-yl]-amide]
IC50 (human A2A receptor): < 10 nM | IC50 (human A1 receptor): > 1000 nM | IC50 (human A2B receptor): < 100 nM

COc1ncc(C2CCOCC2)c2sc(NC(=O)c3cnc(C)s3)nc12 [compound 181, 2-Methyl-thiazole-5-carboxylic acid [4-methoxy-7-(tetrahydro-pyran-4-yl)-thiazolo[4,5-c]pyridin-2-yl]-amide]
IC50 (human A2A receptor): < 10 nM | IC50 (human A1 receptor): < 1000 nM | IC50 (human A2B receptor): < 100 nM

COc1ncc(N2CCOCC2)c2sc(NC(=O)c3ccc(CN4CCCC4=O)cc3)nc12 [compound 170, N-(4-Methoxy-7-morpholin-4-yl-thiazolo[4,5-c]pyridin-2-yl)-4-(2-oxo-pyrrolidin-1-ylmethyl)-benzamide]
IC50 (human A2A receptor): < 10 nM | IC50 (human A2B receptor): < 100 nM

COc1ncc(-c2cnn(C)c2)c2sc(NC(=O)c3ccc(CN(C)C)cc3)nc12 [compound 22, 4-Dimethylaminomethyl-N-[4-methoxy-7-(1-methyl-1H-pyrazol-4-yl)-thiazolo[4,5-c]pyridin-2-yl]-benzamide]
IC50 (human A2A receptor): < 10 nM | IC50 (human A1 receptor): > 1000 nM | IC50 (human A2B receptor): < 100 nM

COc1nc(F)c(-c2ccccc2)c2sc(NC(=O)N3CCC4(CCOCC4)C3)nc12 [compound 229, 8-Oxa-2-aza-spiro[4.5]decane-2-carboxylic acid (6-fluoro-4-methoxy-7-phenyl-thiazolo[4,5-c]pyridin-2-yl)-amide]
IC50 (human A2A receptor): < 10 nM | IC50 (human A2B receptor): < 10 nM

COc1ncc(-c2ccccc2)c2sc(NC(=O)c3ccc(CN4CCCC4=O)cc3)nc12 [compound 62, N-(4-Methoxy-7-phenyl-thiazolo[4,5-c]pyridin-2-yl)-4-(2-oxo-pyrrolidin-1-ylmethyl)-benzamide]
IC50 (human A2A receptor): < 10 nM | IC50 (human A1 receptor): < 1000 nM | IC50 (human A2B receptor): < 100 nM

COc1ncc(-c2cnn(C)c2)c2sc(NC(=O)N3CCC4(CCCOC4)C3)nc12 (stereo not shown) [compound 80, 7-Oxa-2-aza-spiro[4.5]decane-2-carboxylic acid [4-methoxy-7-(1-methyl-1H-pyrazol-4-yl)-thiazolo[4,5-c]pyridin-2-yl]-amide]
IC50 (human A2A receptor): < 10 nM | IC50 (human A1 receptor): > 1000 nM | IC50 (human A2B receptor): < 100 nM

COc1ncc(-c2cnn(C)c2)c2sc(NC(=O)N3CC[C@]4(CCCOC4)C3)nc12 [compound 177, (R)-7-Oxa-2-aza-spiro[4.5]decane-2-carboxylic acid [4-methoxy-7-(1-methyl-1H-pyrazol-4-yl)-thiazolo[4,5-c]pyridin-2-yl]-amide]
IC50 (human A2A receptor): < 10 nM | IC50 (human A1 receptor): > 1000 nM | IC50 (human A2B receptor): < 100 nM

COc1ncc(C2CCOCC2)c2sc(NC(=O)c3ccc(CN4CCCC4=O)cc3)nc12 [compound 180, N-[4-Methoxy-7-(tetrahydro-pyran-4-yl)-thiazolo[4,5-c]pyridin-2-yl]-4-(2-oxo-pyrrolidin-1-ylmethyl)-benzamide]
IC50 (human A2A receptor): < 10 nM | IC50 (human A1 receptor): < 1000 nM | IC50 (human A2B receptor): < 100 nM

COc1ncc(C2CCOCC2)c2sc(NC(=O)N3CCC4(CCOCC4)C3)nc12 [compound 232, 8-Oxa-2-aza-spiro[4.5]decane-2-carboxylic acid [4-methoxy-7-(tetrahydro-pyran-4-yl)-thiazolo[4,5-c]pyridin-2-yl]-amide]
IC50 (human A2A receptor): < 10 nM | IC50 (human A1 receptor): > 1000 nM | IC50 (human A2B receptor): < 100 nM

COc1ncc(C2=CCOCC2)c2sc(NC(=O)N3CCC4(CCOCC4)C3)nc12 [compound 237, 8-Oxa-2-aza-spiro[4.5]decane-2-carboxylic acid [7-(3,6-dihydro-2H-pyran-4-yl)-4-methoxy-thiazolo[4,5-c]pyridin-2-yl]-amide]
IC50 (human A2A receptor): < 10 nM | IC50 (human A1 receptor): < 1000 nM | IC50 (human A2B receptor): < 10 nM

COc1ncc(-c2ccncc2)c2sc(NC(=O)N3CCC4(CCOCC4)C3)nc12 [compound 212, 8-Oxa-2-aza-spiro[4.5]decane-2-carboxylic acid (4-methoxy-7-pyridin-4-yl-thiazolo[4,5-c]pyridin-2-yl)-amide]
IC50 (human A2A receptor): < 10 nM | IC50 (human A1 receptor): > 1000 nM | IC50 (human A2B receptor): < 100 nM

COc1ncc(N2CCOCC2)c2sc(NC(=O)c3ccc(Cn4ccnc4)cc3)nc12 [compound 33, 4-Imidazol-1-ylmethyl-N-(4-methoxy-7-morpholin-4-yl-thiazolo[4,5-c]pyridin-2-yl)-benzamide]
IC50 (human A2A receptor): < 10 nM | IC50 (human A1 receptor): > 1000 nM | IC50 (human A2B receptor): < 100 nM

COc1ncc(-c2ccccc2)c2sc(NC(=O)N3CCC4(CCCC4N)CC3)nc12 (stereo not shown) [compound 201, 1-amino-N-{4-methoxy-7-phenyl-[1,3]thiazolo[4,5-c]pyridin-2-yl}-8-azaspiro[4.5]decane-8-carboxamide]
IC50 (human A2A receptor): < 10 nM | IC50 (human A2B receptor): < 100 nM

COc1ncc(N2CCOCC2)c2sc(NC(=O)c3ccc(N4C(=O)CCC4=O)cc3)nc12 [compound 214, 4-(2,5-Dioxo-pyrrolidin-1-yl)-N-(4-methoxy-7-morpholin-4-yl-thiazolo[4,5-c]pyridin-2-yl)-benzamide]
IC50 (human A2A receptor): < 10 nM | IC50 (human A1 receptor): > 1000 nM | IC50 (human A2B receptor): < 100 nM

COc1ncc(-c2cnn(C)c2)c2sc(NC(=O)N3CCC4(CCOCC4)C3)nc12 [compound 81, 8-Oxa-2-aza-spiro[4.5]decane-2-carboxylic acid [4-methoxy-7-(1-methyl-1H-pyrazol-4-yl)-thiazolo[4,5-c]pyridin-2-yl]-amide]
IC50 (human A2A receptor): < 10 nM | IC50 (human A1 receptor): > 1000 nM | IC50 (human A2B receptor): < 100 nM

COc1ncc(N2CCOCC2)c2sc(NC(=O)N3CC[C@@]4(CCCOC4)C3)nc12 [compound 168, (S)-7-Oxa-2-aza-spiro[4.5]decane-2-carboxylic acid (4-methoxy-7-morpholin-4-yl-thiazolo[4,5-c]pyridin-2-yl)-amide]
IC50 (human A2A receptor): < 10 nM | IC50 (human A2B receptor): < 100 nM

Source: patent US11186592B2, “Thiazolopyridine derivatives as adenosine receptor antagonists” (MERCK PATENT GMBH, priority 2017, dated 2021)
